The record followed here is PubChem BioAssay (NCI).

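The compound was tested at five concentrations on cells cultured in 96-well plates, with a 48-hour exposure period. Definition used: TGI = concentration required for complete inhibition of growth.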

Holding throughout (experiment): growth of human tumour cells (NCI), 48 h
In test [1] the test system is BT-549 breast.
In test [2] the test system is TK-10 renal.
Test [3] concerns UACC-257 melanoma.
For test [4], the system named is HCT-116 colon.
For test [5], the system named is HOP-62 NSCLC.
Test [6] relates to 786-0 renal.
Test [7] has as its system COLO 205 colon.
Test [8] concerns HS 578T breast.
For test [9], the system named is MCF7 breast.
Test [10] relates to IGROV1 ovarian.
The test system of test [11] is SK-MEL-5 melanoma.
Test [12] concerns M14 melanoma.
Test [13] relates to HOP-92 NSCLC.

For the compound `O=C1c2ccccc2C(=O)c2c(NCC(O)CO)ccc(NCC(O)CO)c21` (stereo not given), the TGI in test [1], in [2], in [3], in [4], in test [5] and in test [6] was > 100 µM in each case. Also, the TGI in [7], in test [8], in test [9], in test [10] and in test [11] was > 100 µM throughout.
On to `COc1cc(Nc2nc3ccccc3nc2C(=O)O)cc(OC)c1OC`, for which the TGI in [1] is > 100 µM; in [2], 78.6 µM; in [3], > 100 µM; in [12], > 100 µM; in [4], > 100 µM; in test [5] it was > 100 µM. The TGI is > 100 µM in [6]; > 100 µM in [7]; 92 µM in test [8]; > 100 µM in [10]; > 100 µM in test [11]; 92.7 µM in test [13].
Turning to `Nc1ccc2c(c1)C(=O)N1CCC[C@H]1C(=O)N2`, the TGI in test [1], in test [2], in test [3], in test [12], in test [4] and in [5] was > 100 µM throughout. The TGI in test [6], in test [7], in [9], in [10], in test [11] and in test [13] was > 100 µM each time.
In the case of `CCOC(=O)Nc1[nH]cc(-c2ccccc2)c1C#N`, the TGI in test [2], in test [12], in test [4], in test [5], in test [6] and in test [7] was > 100 µM in each case. For the same compound, the TGI in test [8], in test [9], in [10] and in test [11] was > 100 µM throughout.
Consider `COc1cccc(C(=O)Oc2ccc(OS(=O)(=O)c3ccc(C)cc3)cc2)c1C#N`, for which the TGI was > 100 µM in test [2]; 96.6 µM in test [3]; > 100 µM in test [12]; > 100 µM in test [4]; > 100 µM in test [5]; > 100 µM in [6]. Moreover, the TGI in [7] was > 100 µM; in [8], > 100 µM; in test [9], > 100 µM; in [10], > 100 µM; in test [11] it was 31.2 µM; in [13] it was > 100 µM.
As to `NC(N)=NCCN1CC2CCC(CC2)C1`, the TGI in test [2], in [3], in test [12], in test [4], in [5] and in test [6] was > 100 µM in each case. For the same compound, the TGI in [7], in [8], in test [10], in [11] and in test [13] was > 100 µM throughout.
Turning to `O=C(O)CCCc1nc2c(n1Cc1ccccc1)C(=O)c1ccccc1C2=O`, the TGI was > 100 µM in [2]; 80.1 µM in [3]; 20.6 µM in [12]; > 100 µM in [4]; > 100 µM in test [6]; > 100 µM in [7]. The TGI in test [8], in test [9], in [10] and in test [13] was > 100 µM throughout.
In the case of `NC(N)=NS(=O)(=O)c1ccc(NNc2c3ccccc3nc3c(C(=O)Nc4ccc(S(=O)(=O)Nc5ncccn5)cc4)cccc23)cc1`, the TGI in test [3] is > 100 µM; in test [12] it was 89.7 µM; in test [4], 78.1 µM; in test [5] it was > 100 µM; in test [6] it was > 100 µM; in [7], > 100 µM. For the same compound, the TGI was > 100 µM in test [9], 44.6 µM in test [10], > 100 µM in [11] and > 100 µM in test [13].
With `COc1cc(C2C3C=CC=C4CC=CC(=C43)C3CCC(=O)N32)cc(OC)c1OC` (stereo not given), the TGI in test [2], in test [3], in test [12], in [4], in [5] and in test [6] was > 100 µM in each case. Moreover, the TGI in [9], in test [10] and in test [13] was > 100 µM in each case.
For the compound `COc1cc(OC)c2nc(C)c(CCCl)c(Cl)c2c1`, the TGI in [1], in test [2], in test [3], in test [12], in test [4] and in [5] was > 100 µM each time. The TGI in [6], in [7], in [8], in test [9] and in test [10] was > 100 µM in each case.
Consider `CCO/C(O)=C(/C(=N)N1CCOCC1)C(=O)Nc1ccc(F)cc1`, for which the TGI in test [1], in test [2], in [3], in test [12], in [4] and in test [5] was > 100 µM in each case. Moreover, the TGI in test [6], in test [7], in test [8], in test [9] and in test [10] was > 100 µM in each case.
With `N#Cc1n[nH]n(-c2ccc(Br)cc2)c1=O`, the TGI in test [1], in test [2], in test [3], in [12], in [4] and in [5] was > 100 µM in each case. For the same compound, the TGI in test [6], in [7], in test [8], in test [9] and in test [10] was > 100 µM throughout.
